From PubChem BioAssay AID2060891 (Molecular Pharmacology Branch, DTP, NCI, 2025)

System: K98450-129-R-PDC complex spheroid growth, percent test/control
Test: Anticancer human tumor K98450-129-R-PDC patient-derived colon adenocarcinoma cell line growth inhibition [RAS]
Details: for IC50: curve of first compound; for viability, T/C: stronger effect = lower value
Summary of the method: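 Agents were tested in combination matrices in half-log decrements from a top concentration at or near clinical Cmax (10 microM if undetermined). Targets were multi-cell spheroids of tumour lines plus HUVEC and MSC stromal cells.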

[1] = second compound 0.000949 µM, first compound 0.0316 µM
[2] = second compound 0.000949 µM, first compound 0.1 µM
[3] = second compound 0.000949 µM, first compound 0.316 µM
[4] = second compound 0.000949 µM, first compound 1 µM
[5] = second compound 0.000949 µM, first compound 3.16 µM
[6] = second compound 0.000949 µM, first compound 10 µM
[7] = second compound 0.003 µM, first compound 0.0316 µM
[8] = second compound 0.003 µM, first compound 0.1 µM
[9] = second compound 0.003 µM, first compound 0.316 µM
[10] = second compound 0.003 µM, first compound 1 µM
[11] = second compound 0.003 µM, first compound 3.16 µM
[12] = second compound 0.003 µM, first compound 10 µM
[13] = second compound 0.00949 µM, first compound 0.0316 µM
[14] = second compound 0.00949 µM, first compound 0.1 µM
[15] = second compound 0.00949 µM, first compound 0.316 µM
[16] = second compound 0.00949 µM, first compound 1 µM
[17] = second compound 0.00949 µM, first compound 3.16 µM
[18] = second compound 0.00949 µM, first compound 10 µM
[19] = second compound 0.03 µM, first compound 0.0316 µM
[20] = second compound 0.03 µM, first compound 0.1 µM
[21] = second compound 0.03 µM, first compound 0.316 µM
[22] = second compound 0.03 µM, first compound 1 µM
[23] = second compound 0.03 µM, first compound 3.16 µM
[24] = second compound 0.03 µM, first compound 10 µM
[25] = second compound 0.0949 µM, first compound 0.0316 µM
[26] = second compound 0.0949 µM, first compound 0.1 µM
[27] = second compound 0.0949 µM, first compound 0.316 µM
[28] = second compound 0.0949 µM, first compound 1 µM
[29] = second compound 0.0949 µM, first compound 3.16 µM
[30] = second compound 0.0949 µM, first compound 10 µM
[31] = second compound 0.3 µM, first compound 0.0316 µM
[32] = second compound 0.3 µM, first compound 0.1 µM
[33] = second compound 0.3 µM, first compound 0.316 µM
[34] = second compound 0.3 µM, first compound 1 µM
[35] = second compound 0.3 µM, first compound 3.16 µM
[36] = second compound 0.3 µM, first compound 10 µM
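Note: spheroids exposed to agents for seven days before the viability readout.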
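Throughout, for viability, T/C: luminescence used as a proxy for viable cell amount.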

CC(C)NCC(C(=O)N1CCN(c2ncnc3c2C(C)CC3O)CC1)c1ccc(Cl)cc1 (stereo not drawn) + CCn1c(-c2cc(N3CCN(C)CC3)cnc2C(C)OC)c2c3cc(ccc31)-c1csc(n1)CC(NC(=O)C1CC1C)C(=O)N1CCCC(N1)C(=O)OCC(C)(C)C2
IC50 (second compound 0.000949 µM): > 10000 nM | IC50 (second compound 0.003 µM): > 10000 nM | IC50 (second compound 0.00949 µM): > 10000 nM | IC50 (second compound 0.03 µM): < 31.6 nM | IC50 (second compound 0.0949 µM): < 31.6 nM | IC50 (second compound 0.3 µM): < 31.6 nM | viability, T/C [1]: 104% | viability, T/C [2]: 93.3% | viability, T/C [3]: 89.9% | viability, T/C [4]: 73.3% | viability, T/C [5]: 100% | viability, T/C [6]: 89.9% | viability, T/C [7]: 90.7% | viability, T/C [8]: 80.8% | viability, T/C [9]: 87.1% | viability, T/C [10]: 76.5% | viability, T/C [11]: 75.3% | viability, T/C [12]: 79.7% | viability, T/C [13]: 66.7% | viability, T/C [14]: 67% | viability, T/C [15]: 70% | viability, T/C [16]: 74.5% | viability, T/C [17]: 77.4% | viability, T/C [18]: 67.5% | viability, T/C [19]: 48.7% | viability, T/C [20]: 44.8% | viability, T/C [21]: 52.7% | viability, T/C [22]: 47.7% | viability, T/C [23]: 54.7% | viability, T/C [24]: 46.9% | viability, T/C [25]: 19% | viability, T/C [26]: 24.3% | viability, T/C [27]: 17.6% | viability, T/C [28]: 17.8% | viability, T/C [29]: 16.2% | viability, T/C [30]: 11.2% | viability, T/C [31]: 11.1% | viability, T/C [32]: 12.6% | viability, T/C [33]: 12.5% | viability, T/C [34]: 10.1% | viability, T/C [35]: 9.61% | viability, T/C [36]: 7.13%

CC(C)n1nc(-c2ccc3oc(N)nc3c2)c2c(N)ncnc21 + CCn1c(-c2cc(N3CCN(C)CC3)cnc2C(C)OC)c2c3cc(ccc31)-c1csc(n1)CC(NC(=O)C1CC1C)C(=O)N1CCCC(N1)C(=O)OCC(C)(C)C2
IC50 (second compound 0.000949 µM): > 100 nM | IC50 (second compound 0.003 µM): > 100 nM | IC50 (second compound 0.00949 µM): > 100 nM | IC50 (second compound 0.03 µM): 10.1 nM | IC50 (second compound 0.0949 µM): < 0.316 nM | IC50 (second compound 0.3 µM): < 0.316 nM | viability, T/C (second compound 0.000949 µM, first compound 0.000316 µM): 98.9% | viability, T/C (second compound 0.000949 µM, first compound 0.001 µM): 80.9% | viability, T/C (second compound 0.000949 µM, first compound 0.00316 µM): 91.9% | viability, T/C (second compound 0.000949 µM, first compound 0.01 µM): 70.7% | viability, T/C [1]: 82.7% | viability, T/C [2]: 70.7% | viability, T/C (second compound 0.003 µM, first compound 0.000316 µM): 88.4% | viability, T/C (second compound 0.003 µM, first compound 0.001 µM): 70.8% | viability, T/C (second compound 0.003 µM, first compound 0.00316 µM): 76.1% | viability, T/C (second compound 0.003 µM, first compound 0.01 µM): 65.4% | viability, T/C [7]: 71.2% | viability, T/C [8]: 64% | viability, T/C (second compound 0.00949 µM, first compound 0.000316 µM): 80.7% | viability, T/C (second compound 0.00949 µM, first compound 0.001 µM): 60.1% | viability, T/C (second compound 0.00949 µM, first compound 0.00316 µM): 63.9% | viability, T/C (second compound 0.00949 µM, first compound 0.01 µM): 57.4% | viability, T/C [13]: 60.2% | viability, T/C [14]: 48.1% | viability, T/C (second compound 0.03 µM, first compound 0.000316 µM): 44.8% | viability, T/C (second compound 0.03 µM, first compound 0.001 µM): 57.9% | viability, T/C (second compound 0.03 µM, first compound 0.00316 µM): 46.3% | viability, T/C (second compound 0.03 µM, first compound 0.01 µM): 51.4% | viability, T/C [19]: 36.9% | viability, T/C [20]: 36.1% | viability, T/C (second compound 0.0949 µM, first compound 0.000316 µM): 19.6% | viability, T/C (second compound 0.0949 µM, first compound 0.001 µM): 20.5% | viability, T/C (second compound 0.0949 µM, first compound 0.00316 µM): 17.9% | viability, T/C (second compound 0.0949 µM, first compound 0.01 µM): 15.8% | viability, T/C [25]: 14.6% | viability, T/C [26]: 11.1% | viability, T/C (second compound 0.3 µM, first compound 0.000316 µM): 9.98% | viability, T/C (second compound 0.3 µM, first compound 0.001 µM): 11% | viability, T/C (second compound 0.3 µM, first compound 0.00316 µM): 10.3% | viability, T/C (second compound 0.3 µM, first compound 0.01 µM): 8.15% | viability, T/C [31]: 7.88% | viability, T/C [32]: 7.36%

CC(Nc1ccc2c(c1)OCCn1cc(N3C(=O)OCC3C(F)F)nc1-2)C(N)=O (stereo not drawn) + CCn1c(-c2cc(N3CCN(C)CC3)cnc2C(C)OC)c2c3cc(ccc31)-c1csc(n1)CC(NC(=O)C1CC1C)C(=O)N1CCCC(N1)C(=O)OCC(C)(C)C2
IC50 (second compound 0.000949 µM): > 10000 nM | IC50 (second compound 0.003 µM): > 10000 nM | IC50 (second compound 0.00949 µM): > 10000 nM | IC50 (second compound 0.03 µM): < 31.6 nM | IC50 (second compound 0.0949 µM): < 31.6 nM | IC50 (second compound 0.3 µM): < 31.6 nM | viability, T/C [1]: 93.6% | viability, T/C [2]: 83.7% | viability, T/C [3]: 86.7% | viability, T/C [4]: 63.9% | viability, T/C [5]: 70.4% | viability, T/C [6]: 61.7% | viability, T/C [7]: 84% | viability, T/C [8]: 81.1% | viability, T/C [9]: 75.2% | viability, T/C [10]: 67.5% | viability, T/C [11]: 68.4% | viability, T/C [12]: 61.3% | viability, T/C [13]: 73.8% | viability, T/C [14]: 74.8% | viability, T/C [15]: 60.5% | viability, T/C [16]: 55.4% | viability, T/C [17]: 54.8% | viability, T/C [18]: 51% | viability, T/C [19]: 38.4% | viability, T/C [20]: 48.4% | viability, T/C [21]: 42.3% | viability, T/C [22]: 35.4% | viability, T/C [23]: 33.8% | viability, T/C [24]: 26.8% | viability, T/C [25]: 17.5% | viability, T/C [26]: 15.9% | viability, T/C [27]: 16% | viability, T/C [28]: 14.7% | viability, T/C [29]: 10.8% | viability, T/C [30]: 10.1% | viability, T/C [31]: 10% | viability, T/C [32]: 10.2% | viability, T/C [33]: 9.37% | viability, T/C [34]: 8.15% | viability, T/C [35]: 7.17% | viability, T/C [36]: 4.8%

C[C@@H](NC(=O)c1ncnc(N)c1Cl)c1ncc(C(=O)Nc2cc(C(F)(F)F)c(Cl)cn2)s1 + CCn1c(-c2cc(N3CCN(C)CC3)cnc2C(C)OC)c2c3cc(ccc31)-c1csc(n1)CC(NC(=O)C1CC1C)C(=O)N1CCCC(N1)C(=O)OCC(C)(C)C2
IC50 (second compound 0.000949 µM): > 10000 nM | IC50 (second compound 0.003 µM): > 10000 nM | IC50 (second compound 0.00949 µM): > 10000 nM | IC50 (second compound 0.03 µM): > 10000 nM | IC50 (second compound 0.0949 µM): < 31.6 nM | IC50 (second compound 0.3 µM): < 31.6 nM | viability, T/C [1]: 105% | viability, T/C [2]: 103% | viability, T/C [3]: 106% | viability, T/C [4]: 97.2% | viability, T/C [5]: 103% | viability, T/C [6]: 90.5% | viability, T/C [7]: 105% | viability, T/C [8]: 88.8% | viability, T/C [9]: 88.4% | viability, T/C [10]: 90.7% | viability, T/C [11]: 110% | viability, T/C [12]: 77.1% | viability, T/C [13]: 76.1% | viability, T/C [14]: 70.7% | viability, T/C [15]: 81.8% | viability, T/C [16]: 88.8% | viability, T/C [17]: 75.3% | viability, T/C [18]: 62.4% | viability, T/C [19]: 57.7% | viability, T/C [20]: 62.3% | viability, T/C [21]: 74.1% | viability, T/C [22]: 67.3% | viability, T/C [23]: 73.9% | viability, T/C [24]: 51.5% | viability, T/C [25]: 25.3% | viability, T/C [26]: 31.9% | viability, T/C [27]: 37% | viability, T/C [28]: 31.9% | viability, T/C [29]: 37.3% | viability, T/C [30]: 17.8% | viability, T/C [31]: 11.4% | viability, T/C [32]: 14.6% | viability, T/C [33]: 16.4% | viability, T/C [34]: 13.5% | viability, T/C [35]: 16% | viability, T/C [36]: 11%
